According to patent publication US7307095B2, “Inhibitors of cathepsin S” (IRM LLC, priority 2003, dated 2007):

Assays:
Assay type in all cases: biochemical
Cathepsin L = Cathepsin L (Homo sapiens, UniProt P07711); test: Cathepsin L inhibition, fluorogenic peptide substrate kinetic assay (selectivity ratio vs cathepsin S); settings: ratio of cathepsin L inhibition constant to cathepsin S inhibition constant
Description: (§1) The optimal substrate for cathepsin L, acetyl-histidine-lysine-phenylalanine-lysine-amino carbamoyl coumarin, was identified from screening a combinatorial library of fluorogenic peptide substrates (Harris, J. L., B. J. Backes, et al. Proc Natl Acad Sci USA 2000, 97(14), 7754-9). Kinetic measurements are performed in a total reaction volume of 30 μl in 384-well microtiter plates. […] Control reactions in the absence of inhibitor are performed in replicates of 24. The reactions are initiated by adding the substrate, acetyl-histidine-lysine-phenylalanine-lysine-amino carbamoyl coumarin, to a final concentration of 20 μM. The rate of substrate hydrolysis is measured by monitoring the increase in fluorescence at an excitation wavelength of 380 nm and an emission wavelength of 450 nm that results from cleavage of the aniline bond in the substrate by the enzyme. The apparent inhibition constants for the compounds are determined from the enzyme progress curves ([…]. Elrod, et al. Anal Biochem 2000, 286(1), 45-50) and are then used to calculate the inhibition constants for competitive inhibitors. Selectivity for cathepsin S in the presence of cathepsin isozymes was determined by the ratio of the cathepsin isozyme inhibition constant of a compound of the present invention to the cathepsin S inhibition constant of the same compound.

Cathepsin S = Cathepsin S (Homo sapiens, UniProt P25774); test: Cathepsin S inhibition, fluorogenic peptide substrate kinetic assay; settings: Cathepsin S inhibition constant; read-out: Ki Cat. S
Chain of Cathepsin S (P25774 115-331, species assumed): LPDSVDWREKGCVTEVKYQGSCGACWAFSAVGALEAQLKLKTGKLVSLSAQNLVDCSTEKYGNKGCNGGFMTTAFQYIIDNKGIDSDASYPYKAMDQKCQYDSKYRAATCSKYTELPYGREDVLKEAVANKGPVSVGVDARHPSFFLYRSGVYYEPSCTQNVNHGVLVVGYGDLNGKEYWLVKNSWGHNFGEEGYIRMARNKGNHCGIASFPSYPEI
Description: The optimal substrate for cathepsin S, acetyl-histidine-proline-valine-lysine-amino carbamoyl coumarin, was identified from screening a combinatorial library of fluorogenic peptide substrates (Harris, J. L., B. J. Backes, et al. Proc Natl Acad Sci USA 2000, 97(14), 7754-9). Kinetic measurements are performed in a total reaction volume of 30 μl in 384-well microtiter plates. […] Control reactions in the absence of inhibitor are performed in replicates of 24. The reactions are initiated by adding the substrate, acetyl-histidine-proline-valine-lysine-amino carbamoyl coumarin, to a final concentration of 50 μM. The rate of substrate hydrolysis is measured by monitoring the increase in fluorescence at an excitation wavelength of 380 nm and an emission wavelength of 450 nm that results from cleavage of the aniline bond in the substrate by the enzyme. The apparent inhibition constants for the compounds are determined from the enzyme progress curves (Kuzmic, P., K. C. Elrod, et al. Anal Biochem 2000, 286(1), 45-50) and are then used to calculate the inhibition constants for competitive inhibitors.

Cathepsin K = molecular target: T1, Cathepsin K (Homo sapiens, UniProt P43235); test: Cathepsin K inhibition, fluorogenic peptide substrate kinetic assay (selectivity ratio vs cathepsin S); settings: ratio of cathepsin K inhibition constant to cathepsin S inhibition constant
T1 sequence (P43235 115-329): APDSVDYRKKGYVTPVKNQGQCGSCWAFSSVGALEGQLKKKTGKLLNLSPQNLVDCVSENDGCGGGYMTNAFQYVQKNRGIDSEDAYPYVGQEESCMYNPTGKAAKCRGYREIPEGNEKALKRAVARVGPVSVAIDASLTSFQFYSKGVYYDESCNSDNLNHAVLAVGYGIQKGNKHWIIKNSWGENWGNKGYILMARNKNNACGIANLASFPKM
Description: as §1, with “Kinetic” for “The optimal substrate for cathepsin L, acetyl-histidine-lysine-phenylalanine-lysine-amino carbamoyl coumarin, was identified from screening a combinatorial library of fluorogenic peptide substrates (Harris, J. L., B. J. Backes, et al. Proc Natl Acad Sci USA 2000, 97(14), 7754-9). Kinetic”, “substrate, acetyl-lysine-histidine-proline-lysine-amino” for “substrate, acetyl-histidine-lysine-phenylalanine-lysine-amino”, “of 40” for “of 20”

Cathepsin B = Cathepsin B (Homo sapiens, UniProt P07858); test: Cathepsin B inhibition, fluorogenic peptide substrate kinetic assay (selectivity ratio vs cathepsin S); settings: ratio of cathepsin B inhibition constant to cathepsin S inhibition constant
Description: as §1, with “Kinetic” for “The optimal substrate for cathepsin L, acetyl-histidine-lysine-phenylalanine-lysine-amino carbamoyl coumarin, was identified from screening a combinatorial library of fluorogenic peptide substrates (Harris, J. L., B. J. Backes, et al. Proc Natl Acad Sci USA 2000, 97(14), 7754-9). Kinetic”, “substrate, acetyl-histidine-proline-valine-lysine-amino” for “substrate, acetyl-histidine-lysine-phenylalanine-lysine-amino”, “of 10” for “of 20”

Chain of Cathepsin L (P07711 114-333, species assumed): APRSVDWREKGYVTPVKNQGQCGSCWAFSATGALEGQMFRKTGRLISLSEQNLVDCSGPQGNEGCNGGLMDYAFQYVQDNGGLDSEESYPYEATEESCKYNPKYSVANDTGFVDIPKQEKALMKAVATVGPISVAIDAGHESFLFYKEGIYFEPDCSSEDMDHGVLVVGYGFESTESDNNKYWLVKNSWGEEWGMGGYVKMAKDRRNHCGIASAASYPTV

| SMILES | Selectivity for Cat. S over Cat. L (Cathepsin L) | Ki (Cathepsin S) [µM] | Selectivity for Cat. S over Cat. K (Cathepsin K) | Selectivity for Cat. S over Cat. B (Cathepsin B) |
| --- | --- | --- | --- | --- |
| O=C(N[C@H](CNc1ccc(F)cc1)COCc1ccccc1)[C@H](CC1CCCCC1)Nc1nc2ccccc2o1 [Example 11, 2-(S)-(Benzooxazol-2-ylamino)-N-[1-(R)-benzyloxymethyl-2-(4-fluoro-phenylamino)-ethyl]-3-cyclohexyl-propionamide] | ++ (++, >100) | < 0.1 | ++ (++, >100) | ++ (++, >100) |
| CC(C)(C)C[C@H](Nc1nc2ccccc2o1)C(=O)N[C@H](CN1CCc2cc(F)ccc21)CS(C)(=O)=O [Example 12, (S)-2-(Benzooxazol-2-ylamino)-4,4-dimethyl-pentanoic acid (R)-[2-(5-fluoro-2,3-dihydro-indol-1-yl)-1-methanesulfonylmethyl-ethyl]-amide] | +++ (+++, >1000) | < 0.1 | ++ (++, >100) | +++ (+++, >1000) |
| O=C(NCCN1CCc2cc(F)ccc21)[C@H](CC1CCCCC1)Nc1nc2ccccc2s1 [Example 16, 2-(S)-(Benzothiazol-2-ylamino)-3-cyclohexyl-N-[2-(5-fluoro-2,3-dihydro-indol-1-yl)-ethyl]-propionamide] | + (+, >10) | < 1 | ++ (++, >100) | ++ (++, >100) |
| COc1ccc(NCCNC(=O)[C@H](CC2CCCCC2)Nc2nc3ccccc3s2)cc1 [Example 17, 2-(S)-(Benzothiazol-2-ylamino)-3-cyclohexyl-N-[2-(4-methoxy-phenylamino)-ethyl]-propionamide] | ++ (++, >100) | < 0.1 | +++ (+++, >1000) | +++ (+++, >1000) |
| CC(C)(C)C[C@H](Nc1cnccn1)C(=O)NCCN1CCc2cc(F)ccc21 [Example 18, (S)-4,4-Dimethyl-2-(pyrazin-2-ylamino)-pentanoic acid [2-(5-fluoro-2,3-dihydro-indol-1-yl)-ethyl]-amide] | + (+, >10) | < 10 | + (+, >10) | + (+, >10) |
| O=C(NCCNc1ccc(F)cc1)[C@H](CC1CCCCC1)Nc1nc2ccc(Cl)cc2s1 [Example 21, 2-(S)-(6-Chloro-benzothiazol-2-ylamino)-3-cyclohexyl-N-[2-(4-fluoro-phenylamino)-ethyl]-propionamide] | + (+, >10) | < 1 | + (+, >10) | ++ (++, >100) |
| CCOC(=O)C[C@@H](CN1CCc2cc(F)ccc21)NC(=O)[C@H](CC1CCCCC1)Nc1nc2ccc(Cl)cc2s1 [Example 30, 3-(S)-[2-(S)-(6-Chloro-benzothiazol-2-ylamino)-3-cyclohexyl-propionylamino]-4-(5-fluoro-2,3-dihydro-indol-1-yl)-butyric acid ethyl ester] | ++ (++, >100) | < 0.1 | +++ (+++, >1000) | +++ (+++, >1000) |
